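Assay format: 96-well plates, 48-hour exposure. TGI denotes the concentration required for complete inhibition of growth.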
Assays:
Assay in all cases: inhibition of tumour cell growth, NCI panel, 48 h
HL-60(TB) leukemia = test system: HL-60(TB) leukemia
MDA-MB-435 = test system: MDA-MB-435
SF-539 CNS = test system: SF-539 CNS
K-562 leukemia = test system: K-562 leukemia
SF-268 CNS = test system: SF-268 CNS
HCC-2998 colon = test system: HCC-2998 colon
OVCAR-5 ovarian = test system: OVCAR-5 ovarian
786-0 renal = test system: 786-0 renal
MOLT-4 leukemia = test system: MOLT-4 leukemia
SNB-19 CNS = test system: SNB-19 CNS
LOX IMVI melanoma = test system: LOX IMVI melanoma
U251 CNS = test system: U251 CNS
TK-10 renal = test system: TK-10 renal
NCI-H522 lung = test system: NCI-H522 lung
A549 NSCLC = test system: A549 NSCLC
HS 578T breast = test system: HS 578T breast
SK-OV-3 ovarian = test system: SK-OV-3 ovarian
SK-MEL-2 melanoma = test system: SK-MEL-2 melanoma
CCRF-CEM leukemia = test system: CCRF-CEM leukemia
KM12 colon = test system: KM12 colon
NCI-H23 lung = test system: NCI-H23 lung
SK-MEL-28 melanoma = test system: SK-MEL-28 melanoma
IGROV1 ovarian = test system: IGROV1 ovarian
SW-620 colon = test system: SW-620 colon
ACHN renal = test system: ACHN renal
MCF7 breast = test system: MCF7 breast
MDA-MB-231 breast = test system: MDA-MB-231 breast
HCT-116 colon = test system: HCT-116 colon
UO-31 renal = test system: UO-31 renal
SK-MEL-5 melanoma = test system: SK-MEL-5 melanoma
SNB-75 CNS = test system: SNB-75 CNS
RXF 393 renal = test system: RXF 393 renal
OVCAR-3 ovarian = test system: OVCAR-3 ovarian
A498 renal = test system: A498 renal
RPMI-8226 leukemia = test system: RPMI-8226 leukemia
NCI-H460 lung = test system: NCI-H460 lung
CAKI-1 renal = test system: CAKI-1 renal
NCI-H226 lung = test system: NCI-H226 lung
OVCAR-4 ovarian = test system: OVCAR-4 ovarian
DU-145 prostate = test system: DU-145 prostate
HOP-62 NSCLC = test system: HOP-62 NSCLC
BT-549 breast = test system: BT-549 breast
NCI/ADR-RES ovarian = test system: NCI/ADR-RES ovarian
SR leukemia = test system: SR leukemia
HOP-92 NSCLC = test system: HOP-92 NSCLC
HT29 colon = test system: HT29 colon
PC-3 prostate = test system: PC-3 prostate
MDA-N = test system: MDA-N
SN12C renal = test system: SN12C renal
M14 melanoma = test system: M14 melanoma
UACC-257 melanoma = test system: UACC-257 melanoma
HCT-15 colon = test system: HCT-15 colon
OVCAR-8 ovarian = test system: OVCAR-8 ovarian
COLO 205 colon = test system: COLO 205 colon
T-47D breast = test system: T-47D breast
EKVX NSCLC = test system: EKVX NSCLC
SF-295 CNS = test system: SF-295 CNS
UACC-62 melanoma = test system: UACC-62 melanoma
MALME-3M melanoma = test system: MALME-3M melanoma

In the case of `O=C(O)CCc1nc2c(n1Cc1ccccc1)C(=O)c1ccccc1C2=O`, the TGI (HL-60(TB) leukemia) is reported as greater than 100 µM, the TGI (MDA-MB-435) is reported as 35.8 µM and the TGI (SF-539 CNS) is reported as greater than 100 µM. For the same compound, the TGI (K-562 leukemia) was greater than 100 µM, the TGI (SF-268 CNS) was greater than 100 µM and the TGI (HCC-2998 colon) was greater than 100 µM. For the same compound, the TGI (OVCAR-5 ovarian) was greater than 100 µM, the TGI (786-0 renal) was greater than 100 µM and the TGI (MOLT-4 leukemia) was greater than 100 µM. It also gave a TGI (SNB-19 CNS) greater than 100 µM, a TGI (LOX IMVI melanoma) greater than 100 µM and a TGI (U251 CNS) greater than 100 µM. For the same compound, the TGI (TK-10 renal) was greater than 100 µM, the TGI (NCI-H522 lung) was 72.1 µM and the TGI (A549 NSCLC) was greater than 100 µM. The TGI (HS 578T breast) was greater than 100 µM, the TGI (SK-OV-3 ovarian) was greater than 100 µM and the TGI (SK-MEL-2 melanoma) was 78.1 µM. For the same compound, the TGI (CCRF-CEM leukemia) was greater than 100 µM, the TGI (KM12 colon) was greater than 100 µM and the TGI (NCI-H23 lung) was greater than 100 µM. For the same compound, the TGI (SK-MEL-28 melanoma) was greater than 100 µM, the TGI (IGROV1 ovarian) was greater than 100 µM and the TGI (SW-620 colon) was greater than 100 µM. The TGI (ACHN renal) was greater than 100 µM, the TGI (MCF7 breast) was greater than 100 µM and the TGI (MDA-MB-231 breast) was greater than 100 µM. The TGI (HCT-116 colon) was greater than 100 µM, the TGI (UO-31 renal) was greater than 100 µM and the TGI (SK-MEL-5 melanoma) was 43.5 µM. The TGI (SNB-75 CNS) was greater than 100 µM, the TGI (RXF 393 renal) was greater than 100 µM and the TGI (OVCAR-3 ovarian) was 85.9 µM. For the same compound, the TGI (A498 renal) was greater than 100 µM, the TGI (RPMI-8226 leukemia) was greater than 100 µM and the TGI (NCI-H460 lung) was greater than 100 µM. The TGI (CAKI-1 renal) was greater than 100 µM, the TGI (NCI-H226 lung) was greater than 100 µM and the TGI (OVCAR-4 ovarian) was greater than 100 µM. For the same compound, the TGI (DU-145 prostate) was greater than 100 µM, the TGI (HOP-62 NSCLC) was greater than 100 µM and the TGI (BT-549 breast) was greater than 100 µM. It also gave a TGI (NCI/ADR-RES ovarian) greater than 100 µM, a TGI (SR leukemia) greater than 100 µM and a TGI (HOP-92 NSCLC) of 66.4 µM. It also gave a TGI (HT29 colon) greater than 100 µM, a TGI (PC-3 prostate) greater than 100 µM and a TGI (MDA-N) of 52.8 µM. The TGI (SN12C renal) was greater than 100 µM, the TGI (M14 melanoma) was 50.7 µM and the TGI (UACC-257 melanoma) was greater than 100 µM. For the same compound, the TGI (HCT-15 colon) was greater than 100 µM, the TGI (OVCAR-8 ovarian) was greater than 100 µM and the TGI (COLO 205 colon) was greater than 100 µM. It also gave a TGI (T-47D breast) greater than 100 µM, a TGI (EKVX NSCLC) greater than 100 µM and a TGI (SF-295 CNS) greater than 100 µM. For the same compound, the TGI (UACC-62 melanoma) was greater than 100 µM.
With `O=C1C=CC(=O)N1n1c(Cc2ccccc2)n[nH]c1=O` the TGI (HL-60(TB) leukemia) was greater than 100 µM, the TGI (MDA-MB-435) was greater than 100 µM and the TGI (SF-539 CNS) was greater than 100 µM. It also gave a TGI (K-562 leukemia) greater than 100 µM, a TGI (MALME-3M melanoma) greater than 100 µM and a TGI (SF-268 CNS) greater than 100 µM. The TGI (HCC-2998 colon) was greater than 100 µM, the TGI (OVCAR-5 ovarian) was greater than 100 µM and the TGI (786-0 renal) was greater than 100 µM. For the same compound, the TGI (MOLT-4 leukemia) was greater than 100 µM, the TGI (SNB-19 CNS) was greater than 100 µM and the TGI (LOX IMVI melanoma) was greater than 100 µM. The TGI (U251 CNS) was greater than 100 µM, the TGI (TK-10 renal) was greater than 100 µM and the TGI (NCI-H522 lung) was greater than 100 µM. The TGI (A549 NSCLC) was greater than 100 µM, the TGI (HS 578T breast) was greater than 100 µM and the TGI (SK-OV-3 ovarian) was greater than 100 µM. For the same compound, the TGI (SK-MEL-2 melanoma) was greater than 100 µM, the TGI (CCRF-CEM leukemia) was greater than 100 µM and the TGI (KM12 colon) was greater than 100 µM. It also gave a TGI (NCI-H23 lung) greater than 100 µM, a TGI (SK-MEL-28 melanoma) greater than 100 µM and a TGI (IGROV1 ovarian) greater than 100 µM. The TGI (SW-620 colon) was greater than 100 µM, the TGI (ACHN renal) was greater than 100 µM and the TGI (MCF7 breast) was greater than 100 µM. It also gave a TGI (MDA-MB-231 breast) greater than 100 µM, a TGI (HCT-116 colon) greater than 100 µM and a TGI (UO-31 renal) greater than 100 µM. The TGI (SK-MEL-5 melanoma) was greater than 100 µM, the TGI (RXF 393 renal) was greater than 100 µM and the TGI (OVCAR-3 ovarian) was greater than 100 µM. The TGI (A498 renal) was greater than 100 µM, the TGI (RPMI-8226 leukemia) was greater than 100 µM and the TGI (NCI-H460 lung) was greater than 100 µM. For the same compound, the TGI (CAKI-1 renal) was greater than 100 µM, the TGI (NCI-H226 lung) was greater than 100 µM and the TGI (OVCAR-4 ovarian) was greater than 100 µM. It also gave a TGI (DU-145 prostate) greater than 100 µM, a TGI (HOP-62 NSCLC) greater than 100 µM and a TGI (BT-549 breast) greater than 100 µM. For the same compound, the TGI (NCI/ADR-RES ovarian) was greater than 100 µM, the TGI (SR leukemia) was greater than 100 µM and the TGI (HOP-92 NSCLC) was greater than 100 µM. It also gave a TGI (HT29 colon) greater than 100 µM, a TGI (PC-3 prostate) greater than 100 µM and a TGI (MDA-N) greater than 100 µM. It also gave a TGI (SN12C renal) greater than 100 µM, a TGI (UACC-257 melanoma) greater than 100 µM and a TGI (HCT-15 colon) greater than 100 µM. For the same compound, the TGI (OVCAR-8 ovarian) was greater than 100 µM, the TGI (COLO 205 colon) was greater than 100 µM and the TGI (T-47D breast) was greater than 100 µM. It also gave a TGI (EKVX NSCLC) greater than 100 µM, a TGI (SF-295 CNS) greater than 100 µM and a TGI (UACC-62 melanoma) greater than 100 µM.

Source: PubChem BioAssay (NCI)
